Experimental data taken from paper PMC4077311, “A Huge PVDF Adsorption Difference Between Resveratrol and ε-Viniferin Allows to Quantitatively Purify Them and to Assess Their Anti-Tyrosinase Property” (Chromatographia, 2014).

Target: Mushroom tyrosinase (Agaricus bisporus, UniProt C7FF04)
Experiment: Tyrosinase L-DOPA oxidase inhibition activity
Experimental: Then, 40 μL L-DOPA (2.5 mM) and 80 μL phosphate buffer were added to the solution. Optical density (OD) of each assay, relative to the control, was measured at 492 nm by using a microplate reader (Tecan® Infinite M200 spectrophotometer).
Results expression: Inhibition of enzyme activity by each sample is expressed as % inhibition compared to the control and represented by the following equation: [1 − (ODsample × ODcontrol^−1)] × 100.

Mushroom tyrosinase, sequence (G1K3P4 entry or part of it): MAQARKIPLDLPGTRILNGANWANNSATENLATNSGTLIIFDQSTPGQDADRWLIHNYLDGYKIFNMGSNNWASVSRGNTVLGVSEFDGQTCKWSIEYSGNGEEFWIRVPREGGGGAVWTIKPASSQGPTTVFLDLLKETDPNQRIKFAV
Mushroom tyrosinase, sequence (C7FF04 1-392): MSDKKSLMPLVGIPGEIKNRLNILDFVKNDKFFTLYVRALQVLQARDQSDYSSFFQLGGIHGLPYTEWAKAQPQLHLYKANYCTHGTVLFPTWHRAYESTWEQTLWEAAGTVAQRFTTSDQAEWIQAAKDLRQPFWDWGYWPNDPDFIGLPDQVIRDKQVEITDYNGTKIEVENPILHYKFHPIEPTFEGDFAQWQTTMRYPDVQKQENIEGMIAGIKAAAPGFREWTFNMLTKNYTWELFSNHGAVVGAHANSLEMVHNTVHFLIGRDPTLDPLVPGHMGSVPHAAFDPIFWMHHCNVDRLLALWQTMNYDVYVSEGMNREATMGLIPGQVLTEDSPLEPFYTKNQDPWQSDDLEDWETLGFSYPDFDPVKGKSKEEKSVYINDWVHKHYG

SMILES	Tyrosinase inhibitory activity in words
Oc1ccc(/C=C/c2cc(O)cc(O)c2)cc1 [trans-Resveratrol 1, (E)-5-(4-hydroxystyryl)benzene-1,3-diol]	moderate inhibitory activity
Oc1ccc(C=Cc2cc(O)cc3c2[C@H](c2cc(O)cc(O)c2)[C@@H](c2ccc(O)cc2)O3)cc1 [trans-ε-Viniferin 2, 5-[(2S, 3S)-6-hydroxy-2-(4-hydroxyphenyl)-4-(4-hydroxystyryl)-2,3-dihydrobenzofuran-3-yl]benzene-1,3-diol]	the most active tyrosinase inhibitor ever tested by us
